# From patent US20240342127A1, “METHODS OF TREATING COPPER METABOLISM-ASSOCIATED DISEASES OR DISORDERS” (Alexion Pharmaceuticals, Inc., priority 2021, published 2024)
# Experiments:
# [1] = system: participants with WD
# Procedure: Incremental dose increases are permitted, but not required, up to a maximum of 60 mg/day.
# In summary, the maximum daily dose permitted in this study (Study 302) has been set as […].
# [2] = in vivo
# [3] = system: patients with WD; settings: cited from earlier work
# [4] = compared with other treatments; cited from earlier work
substance,measurement,setting,value
Bis-choline tetrathiomolybdate [BC-TTM],"copper mobilization from tissue to blood compared with SoC, as measured by daily mean dNCC AUEC0-48 weeks","[1]; 48-week Primary Evaluation Period, overall mean daily dose 15.6 mg",approximately 3 fold
same,participants with Grade 2 ALT elevations during treatment,[1]; in vivo,approximately 15%
same,"effect of age, sex or body weight on PK",[2],not significant covariates
same,reduction of mean serum non-ceruloplasmin-bound Cu (NCC) compared with baseline,"[3]; Week 24, 28 patients with WD, monotherapy",72%
same,most frequently reported drug-related AEs,"[3]; human, in vivo","changes in hematological parameters, fatigue, sulphur eructations, and other gastrointestinal symptoms"
same,paradoxical neurological worsening upon treatment initiation,"[3]; human, in vivo",No paradoxical neurological worsening was observed
same,patients with reversible liver function test elevations,"[3]; human, in vivo",39%
same,severity of most reported adverse events,"[3]; human, in vivo",mild (Grade 1) to moderate (Grade 2)
same,tolerability of treatment,"[3]; human, in vivo",generally well-tolerated
same,binding affinity to copper,[4],greater binding affinity to copper compared with other treatments
